Values of other authors in paper PMC4621921 (Oncotarget, 2015).
Like-named read-outs stand apart in the source and are kept apart here.

Columns and labels:
[1] = parameters: method as in PMID 23169517, PMID 24002501; settings: clinical studies
[2] = system: castration-resistant prostate cancer; parameters: method as in earlier work; settings: phase 3, castration-resistant prostate cancer; no statistically significant improvement
prostate cancer = system: prostate cancer; parameters: method as in PMID 23169517; settings: phase 2, prostate cancer
[3] = in vivo

Compound	common AEs [1]	median OS [2] [months]	evaluable patients with regression in soft tissue lesions (prostate cancer) [%]	PFS (prostate cancer; versus 5.9 weeks with placebo) [weeks]	common AEs [3]
COc1cc2nccc(Oc3ccc(NC(=O)C4(C(=O)Nc5ccc(F)cc5)CC4)cc3)c2cc1OC [cabozantinib]	fatigue, decreased appetite, and diarrhea	11	72	23.9	
COc1cc2c(Oc3ccc(NC(=O)C4(C(=O)Nc5ccc(F)cc5)CC4)cc3F)ccnc2cc1OCCCN1CCOCC1 [foretinib]					fatigue, hypertension, and gastrointestinal toxicities
C[C@]12C=CC(=O)C=C1CC[C@@H]1[C@@H]2C(=O)C[C@@]2(C)[C@H]1CC[C@]2(O)C(=O)CO [prednisone]		9.8			
